This note sets out measurements from patent US8426148B2, “Label-free methods using a resonant waveguide grating biosensor to determine GPCR signaling pathways” (Corning Incorporated, priority 2007, dated 2013).

Assay [1] deals with adenylate cyclase. The assay is described as follows: RWG biosensor DMR assay: NECA pretreatment, then forskolin-induced response. The settings on record: quiescent A431 cells; NECA pretreatment 1 h, then 1 μM forskolin; read-out: IC50 of NECA pretreatment against the forskolin-induced response. Type of assay: cell-based, Human. How it is done:
(§1) The plate lid was handled automatically by the robotics.
Similarly, pretreatment of A431 cells with various concentrations of NECA for 1 h desensitizes adenylate cyclase and attenuates the forskolin-induced responses (FIG. 3B). […] Although not limited by theory a possible mechanism of cross-talk between these two pathways is that upon activation of adenylate cyclase by forskolin, cAMP is produced and activates PKA. PKA in turn may phosphorylate the Gs receptors, and cause complete inhibition of the Gs-mediated response. Accordingly, FIGS. 3A and 3B, respectively, illustrate: 3A) forskolin pretreatment on the NECA-induced Gs response; and 3B) of the effects NECA pretreatment on forskolin-induced responses in quiescent A431 cells.

The subject of assay [2] is histamine receptor subtype 1. The assay is described as follows: RWG biosensor DMR assay: U73122 pretreatment, then histamine-induced DMR signal. Type of assay: cell-based, Human. The settings on record: quiescent A431 cells.
Description: as §1
Histamine is a natural agonist for endogenously expressed Gq-coupled receptor histamine receptor subtype 1 in A431 cells.

The next assay has as its system H1 histamine receptor. The assay is described as follows: RWG biosensor DMR assay: forskolin pretreatment, then histamine-induced Gq response. Type of assay: cell-based, Human. The settings on record: quiescent A431 cells; forskolin pretreatment 1 h, then 100 nM histamine; read-out: IC50 of forskolin pretreatment, partial inhibition of histamine-induced response. How it is done:
(§2) Cell culture—Human epidermoid carcinoma A431 cells (American Type Cell Culture) were grown in Dulbecco's modified Eagle's medium (DMEM) supplemented with 10% fetal bovine serum (FBS), 4.5 g/liter glucose, 2 mM glutamine, and antibiotics. About 1.8×10^4 cells at passage 3 to 8 suspended in 50 μL of the DMEM medium containing 10% FBS were placed in each well of a 384-well microplate, and were cultured at 37° C. under air/5% CO2 for about 1 day, followed by about 20 hr starvation through continuously culturing in the serum-free DMEM.
(§3) Optical biosensor system and cell assays—CORNING® EPIC® wavelength interrogation system was used. […] Once stable temperature is reached (typically within 1 hr), a sensor microplate is transferred by the robotics into the plate holder directly above the detection system, while a source plate is moved to an appropriate compartment so that it is readily addressable by the on-board liquid handling unit. […]
(§4) For kinetic assays, the cells were washed with HBSS (Hanks Balanced Salt Solution with 20 mM HEPES) buffer. After 1 hour incubation within the detection system, the sensor plate was scanned and a baseline response was recorded. Then, compound solutions were transferred into the sensor plate using the on-board liquid handling system, and the cell responses were then recorded for another period of time. […]

The subject of assay [3] is adenylate cyclase. The settings on record: read-out: IC50 of histamine pretreatment against the forskolin response, quiescent A431 cells, then 1 μM forskolin, slight inhibition. As for the experimental part: as §2, §3, §4

The structures appear in SMILES notation. pIC50: −log10 of the molar value. Read-outs that look alike come from different tables or passages of the source.

In general, pIC50 refers to −log10 of the IC50, conventionally taken in molar units. Consider `CCNC(=O)[C@H]1O[C@@H](n2cnc3c(N)ncnc32)[C@H](O)[C@@H]1O` [NECA, N-ethyladenosine-5′-uronic acid], for which the pIC50 on adenylate cyclase [1] was 8.89.

`COc1ccc2c(c1)CC[C@@H]1[C@@H]2CC[C@]2(C)[C@@H](NCCCCCCN3C(=O)C=CC3=O)CC[C@@H]12` [U73122, 1-[6-[[17β-3-methoxyestra-1,3,5(10)-trien-17-yl]amino]hexyl]-1H-pyrrole-2,5-dione]: in assay [2] (U73122 0-228 μM, then 1,000 nM histamine), the “effect of U73122 pretreatment on histamine-induced DMR response” value is “dose-dependent inhibition of the histamine-induced DMR response”. Besides, in assay [2] (high doses of U73122, 1,000 nM histamine), the “effect of U73122 at high doses on histamine response (P-DMR amplitude)” value is listed as “completely inhibit the histamine response”.

As to `C=C[C@@]1(C)CC(=O)[C@]2(O)[C@@]3(C)[C@@H](O)CCC(C)(C)[C@@H]3[C@H](O)[C@H](OC(C)=O)[C@@]2(C)O1` [forskolin, Forskolin], the pIC50 in the assay with H1 histamine receptor is roughly 6.74.

In the case of `NCCc1c[nH]cn1` [histamine, Histamine], the pIC50 in the assay on adenylate cyclase [3] is 6.52.
